Article PMC6678728, “Methylene Blue Blocks and Reverses the Inhibitory Effect of Tau on PMCA Function” (International Journal of Molecular Sciences, 2019)

Target: T1, purified pig brain PMCA (brainPMCA)
T1 construct: gene ATP2B1; native, purified from pig brain synaptosomal plasma membrane vesicles, delipidated, reconstituted in PS or PC
Assay: quenching of intrinsic Trp fluorescence, Stern-Volmer
Assay type: binding, Sus scrofa
Details: reconstituted in PS, no tau; pH 7.4, 25 °C, 100 mM KCl, 2 mM MgCl2, 3.16 µM free Ca2+, 1 mM ATP; unreliable (extrapolated: titrated only up to 10 µM MB)
Text: quenching of intrinsic Trp fluorescence, Stern-Volmer on purified pig brain PMCA (brainPMCA)

Kd: 52.6 ± 2.5 µM
Structure (SMILES): CN(C)c1ccc2nc3ccc(=[N+](C)C)cc-3sc2c1 [Methylene blue]
